pIC50: −log10 of the molar value.
Target: T1, NLRP3 (Homo sapiens, UniProt Q96P20)
T1 construct: host or cells: THP-1 cells differentiated with PMA
Assay: IL-1β Secretion Assay (NLRP3-dependent IL1β secretion in THP1 cells)
Assay type: cell-based
Settings: PMA-differentiated THP-1 cells; compounds incubated 20 h; 2.5 μM Nigericin 3 h; HTRF IL-1β readout; read-out: IC50 IL-1β Inhibition
Procedure, shortened: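 THP-1 cells differentiated with 100 ng/mL PMA for 24 h, then given compound (7-point 3-fold series, 1:200 from DMSO) for 20 h in RPMI+5% FBS. NLRP3 activated with 2.5 μM nigericin for 3 h; secreted IL-1β measured by HTRF; IC50 from logistic fit of % inhibition.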

T1 sequence (Q96P20 whole entry): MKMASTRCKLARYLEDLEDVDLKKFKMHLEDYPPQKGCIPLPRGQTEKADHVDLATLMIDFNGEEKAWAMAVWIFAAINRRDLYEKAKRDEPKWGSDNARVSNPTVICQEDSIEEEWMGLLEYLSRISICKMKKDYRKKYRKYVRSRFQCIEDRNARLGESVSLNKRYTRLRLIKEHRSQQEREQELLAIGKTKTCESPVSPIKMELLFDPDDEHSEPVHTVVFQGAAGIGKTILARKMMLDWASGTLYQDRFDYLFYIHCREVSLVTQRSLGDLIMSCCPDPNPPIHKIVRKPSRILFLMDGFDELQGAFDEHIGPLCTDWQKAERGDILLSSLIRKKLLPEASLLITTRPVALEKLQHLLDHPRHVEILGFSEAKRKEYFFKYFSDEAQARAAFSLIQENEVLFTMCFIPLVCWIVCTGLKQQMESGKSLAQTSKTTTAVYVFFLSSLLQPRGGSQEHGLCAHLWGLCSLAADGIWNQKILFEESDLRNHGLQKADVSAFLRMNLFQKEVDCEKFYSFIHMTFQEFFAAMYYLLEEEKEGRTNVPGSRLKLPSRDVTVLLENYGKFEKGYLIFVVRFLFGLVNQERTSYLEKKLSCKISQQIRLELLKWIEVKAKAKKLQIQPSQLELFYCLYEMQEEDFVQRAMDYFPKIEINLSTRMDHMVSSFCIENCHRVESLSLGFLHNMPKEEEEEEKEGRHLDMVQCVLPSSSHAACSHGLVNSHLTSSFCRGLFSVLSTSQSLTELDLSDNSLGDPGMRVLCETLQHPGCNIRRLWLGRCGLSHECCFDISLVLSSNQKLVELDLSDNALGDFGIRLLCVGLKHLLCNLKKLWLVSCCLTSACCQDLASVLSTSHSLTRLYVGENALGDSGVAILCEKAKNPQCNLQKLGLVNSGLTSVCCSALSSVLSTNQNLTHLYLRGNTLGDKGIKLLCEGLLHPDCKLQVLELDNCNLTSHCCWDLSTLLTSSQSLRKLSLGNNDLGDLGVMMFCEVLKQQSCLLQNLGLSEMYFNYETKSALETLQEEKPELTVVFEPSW

SMILES	pIC50
Cc1ccc(-c2nnc(N[C@@H]3CCCC[C@H]3O)n3cccc23)c(CC(F)(F)F)c1 [Compound 156, (1R,2R)-2-({1-[4-methyl-2-(2,2,2-trifluoroethyl)phenyl]pyrrolo[1,2-d][1,2,4]triazin-4-yl}amino)cyclohexan-1-ol]	8.00 to 9.00
FC(F)(F)c1ccc(-c2nnc(N[C@@H]3CCCN(C4CCCOC4)C3)n3cccc23)c(C(F)(F)F)c1 (stereo partly drawn) [Compound 6, 1-[2,4-bis(trifluoromethyl)phenyl]-N-[(3R)-1-(oxan-3-yl)piperidin-3-yl]pyrrolo[1,2-d][1,2,4]triazin-4-amine]	7.00 to 8.00
COc1ccc(-c2nnc(N[C@@H]3CCCN(C)C3)n3ccc(F)c23)c(OC(F)F)c1 [Compound 55, 1-[2-(difluoromethoxy)-4-methoxyphenyl]-8-fluoro-N-[(3R)-1-methylpiperidin-3-yl]pyrrolo[1,2-d][1,2,4]triazin-4-amine]	7.00 to 8.00
COc1ccc(-c2nnc(NCc3cccc(O)c3)n3cncc23)c(OC(F)(F)F)c1 [Compound 233, 3-[{{1-[4-methoxy-2-(trifluoromethoxy)phenyl]imidazo[1,5-d][1,2,4]triazin-4-yl}amino)methyl]phenol]	8.00 to 9.00
OCCN1CCC[C@@H](Nc2nnc(-c3ccc(Cl)cc3OC(F)F)c3cncn23)C1 [Compound 192, 2-[(3R)-3-({1-[4-chloro-2-(difluoromethoxy)phenyl]imidazo[1,5-d][1,2,4]triazin-4-yl}amino)piperidin-1-yl]ethan-1-ol]	7.00 to 8.00
C[C@]1(O)C[C@@H](Nc2nnc(-c3ccc(C(F)(F)F)cc3OC(F)(F)F)c3cccn23)C1 [Compound 123, (1s,3s)-1-methyl-3-({1-[2-(trifluoromethoxy)-4-(trifluoromethyl)phenyl]pyrrolo[1,2-d][1,2,4]triazin-4-yl}amino)cyclobutan-1-ol]	8.00 to 9.00
COc1ccc(-c2nnc(N[C@H]3CCCC[C@@H]3O)n3cccc23)c(OC(F)(F)F)c1 [Compound 81, (1S,2S)-2-({1-[4-methoxy-2-(trifluoromethoxy)phenyl]pyrrolo[1,2-d][1,2,4]triazin-4-yl}amino)cyclohexan-1-ol]	7.00 to 8.00
CN1CCC[C@@H](Nc2nnc(-c3ccc(C(F)(F)F)cc3F)c3cccn23)C1 [Compound 19, 1-[2-fluoro-4-(trifluoromethyl)phenyl]-N-[(3R)-1-methylpiperidin-3-yl]pyrrolo[1,2-d][1,2,4]triazin-4-amine]	7.00 to 8.00
Cc1cc2c(-c3ccc(C(F)(F)F)cc3C(F)(F)F)nnc(N[C@H]3CCCC[C@@H]3O)n2c1 [Compound 132, (1S,2S)-2-({1-[2,4-bis(trifluoromethyl)phenyl]-7-methylpyrrolo[1,2-d][1,2,4]triazin-4-yl}amino)cyclohexan-1-ol]	7.00 to 8.00
Cc1cc2c(-c3ccc(C(F)(F)F)cc3C(F)(F)F)nnc(N[C@@H]3CCCN(C)C3)n2c1 [Compound 109, 1-[2,4-bis(trifluoromethyl)phenyl]-7-methyl-N-[(3R)-1-methylpiperidin-3-yl]pyrrolo[1,2-d][1,2,4]triazin-4-amine]	8.00 to 9.00
CCN1CCC[C@@H](Nc2nnc(-c3ccc(C(F)(F)F)cc3C(F)(F)F)c3c(F)ccn23)C1 [Compound 29, 1-[2,4-bis(trifluoromethyl)phenyl]-N-[(3R)-1-ethylpiperidin-3-yl]-8-fluoropyrrolo[1,2-d][1,2,4]triazin-4-amine]	8.00 to 9.00
C[C@]1(O)C[C@@H](Nc2nnc(-c3ccc(C(F)(F)F)cc3C(F)(F)F)c3cncn23)C1 [Compound 218, (1s,3s)-3-({1-[2,4-bis(trifluoromethyl)phenyl]imidazo[1,5-d][1,2,4]triazin-4-yl}amino)-1-methylcyclobutan-1-ol]	8.00 to 9.00
COc1ccc(-c2nnc(N[C@@H]3CCCN(C)C3)n3cccc23)c(Br)c1 [Compound 47, 1-(2-bromo-4-methoxyphenyl)-N-[(3R)-1-methylpiperidin-3-yl]pyrrolo[1,2-d][1,2,4]triazin-4-amine]	7.00 to 8.00
Cc1ccc(-c2nnc(N[C@@H]3CCCC[C@H]3O)n3cccc23)c(OC(F)F)c1 [Compound 136, (1R,2R)-2-({1-[2-(difluoromethoxy)-4-methylphenyl]pyrrolo[1,2-d][1,2,4]triazin-4-yl}amino)cyclohexan-1-ol]	8.00 to 9.00
OCCN1CCC[C@@H](Nc2nnc(-c3ccc(C(F)(F)F)cc3OCF)c3cccn23)C1 [Compound 173, 2-[(3R)-3-({1-[2-(fluoromethoxy)-4-(trifluoromethyl)phenyl]pyrrolo[1,2-d][1,2,4]triazin-4-yl}amino)piperidin-1-yl]ethan-1-ol]	> 9.00
CN1CCC[C@@H](Nc2nnc(-c3ccc(Cl)cc3OC(F)F)c3cncn23)C1 [Compound 190, 1-[4-chloro-2-(difluoromethoxy)phenyl]-N-[(3R)-1-methylpiperidin-3-yl]imidazo[1,5-d][1,2,4]triazin-4-amine]	> 9.00

Second part, the molecule after the results:

pIC50	SMILES
> 9.00	COc1ccc(-c2nnc(NC(C)c3cccc(O)c3)n3cncc23)c(C(F)(F)F)c1 (centres unmarked) [Compound 251, 3-[1-({1-[4-methoxy-2-(trifluoromethyl)phenyl]imidazo[1,5-d][1,2,4]triazin-4-yl}amino)ethyl]phenol]
7.00 to 8.00	COc1ccc(-c2nnc(N[C@H]3C[C@@](C)(O)C3)n3cncc23)c(C2CC2)c1 [Compound 319, (1s,3s)-3-{[1-(2-cyclopropyl-4-methoxyphenyl)imidazo[1,5-d][1,2,4]triazin-4-yl]amino}-1-methylcyclobutan-1-ol]
8.00 to 9.00	CCN1CCC[C@@H](Nc2nnc(-c3ccc(SC)cc3OC(F)(F)F)c3cc(C)nn23)C1 [Compound 366, N-[(3R)-1-ethylpiperidin-3-yl]-2-methyl-4-[4-(methylsulfanyl)-2-(trifluoromethoxy)phenyl]pyrazolo[1,5-d][1,2,4]triazin-7-amine]
8.00 to 9.00	C[C@]1(O)C[C@@H](Nc2nnc(-c3ccc(C(F)(F)F)cc3OC(F)(F)F)c3ccnn23)C1 [Compound 397, (1s,3s)-1-methyl-3-({4-[2-(trifluoromethoxy)-4-(trifluoromethyl)phenyl]pyrazolo[1,5-d][1,2,4]triazin-7-yl}amino)cyclobutan-1-ol]
8.00 to 9.00	CCN1CCC[C@@H](Nc2nnc(-c3ccc(C#N)cc3OC(F)F)c3cc(C)nn23)C1 [Compound 378, 3-(difluoromethoxy)-4-(7-{[(3R)-1-ethylpiperidin-3-yl]amino}-2-methylpyrazolo[1,5-d][1,2,4]triazin-4-yl)benzonitrile]
8.00 to 9.00	Cc1cc2c(-c3ccc(C(F)(F)F)cc3OC(F)F)nnc(N[C@H]3C[C@@](C)(O)C3)n2n1 [Compound 380, (1s,3s)-3-({4-[2-(difluoromethoxy)-4-(trifluoromethyl)phenyl]-2-methylpyrazolo[1,5-d][1,2,4]triazin-7-yl}amino)-1-methylcyclobutan-1-ol]
7.00 to 8.00	COc1ccc(-c2nnc(NC3CCNC3=O)n3cncc23)c(OC(F)(F)F)c1 (centres unmarked) [Compound 284, 3-({1-[4-methoxy-2-(trifluoromethoxy)phenyl]imidazo[1,5-d][1,2,4]triazin-4-yl}amino)pyrrolidin-2-one]
8.00 to 9.00	COc1ccc(-c2nnc(N[C@@H]3CCCN(C)C3)n3cncc23)c(OCC(F)(F)F)c1 [Compound 304, 1-[4-methoxy-2-(2,2,2-trifluoroethoxy)phenyl]-N-[(3R)-1-methylpiperidin-3-yl]imidazo[1,5-d][1,2,4]triazin-4-amine]
7.00 to 8.00	O[C@H]1CC[C@@H](Nc2nnc(-c3ccc(C(F)(F)F)cc3C(F)(F)F)c3cncn23)CC1 [Compound 275, (1s,4s)-4-({1-[2,4-bis(trifluoromethyl)phenyl]imidazo[1,5-d][1,2,4]triazin-4-yl}amino)cyclohexan-1-ol]
> 9.00	O[C@H]1CCC[C@@H](Nc2nnc(-c3ccc(C(F)(F)F)cc3OC(F)(F)F)c3cncn23)C1 [Compound 240, (1S,3R)-3-({1-[2-(trifluoromethoxy)-4-(trifluoromethyl)phenyl]imidazo[1,5-d][1,2,4]triazin-4-yl}amino)cyclohexan-1-ol]
8.00 to 9.00	O[C@@H]1COCC[C@H]1Nc1nnc(-c2ccc(C(F)(F)F)cc2C(F)(F)F)c2cncn12 [Compound 273, (3S,4R)-4-({1-[2,4-bis(trifluoromethyl)phenyl]imidazo[1,5-d][1,2,4]triazin-4-yl}amino)oxan-3-ol]
8.00 to 9.00	CN1CC[C@@H](O)[C@@H](Nc2nnc(-c3ccc(C(F)(F)F)cc3CC(F)(F)F)c3cncn23)C1 [Compound 289, (3S,4R)-1-methyl-3-({1-[2-(2,2,2-trifluoroethyl)-4-(trifluoromethyl)phenyl]imidazo[1,5-d][1,2,4]triazin-4-yl}amino)piperidin-4-ol]
8.00 to 9.00	Cc1cc2c(-c3ccc(C(F)(F)F)cc3OC(F)F)nnc(NC(C)c3cccc(O)c3)n2n1 (centres unmarked) [Compound 383, 3-[1-({4-[2-(difluoromethoxy)-4-(trifluoromethyl)phenyl]-2-methylpyrazolo[1,5-d][1,2,4]triazin-7-yl}amino)ethyl]phenol]
7.00 to 8.00	O[C@@H]1COCC[C@H]1Nc1nnc(-c2ccc(OC(F)F)cc2OC(F)(F)F)c2cncn12 [Compound 331, (3S,4R)-4-({1-[4-(difluoromethoxy)-2-(trifluoromethoxy)phenyl]imidazo[1,5-d][1,2,4]triazin-4-yl}amino)oxan-3-ol]
8.00 to 9.00	CCN1CCC[C@@H](Nc2nnc(-c3ccc(C(F)(F)F)cc3OC(F)(F)F)c3cc(C)nn23)C1 [Compound 365, N-[(3R)-1-ethylpiperidin-3-yl]-2-methyl-4-[2-(trifluoromethoxy)-4-(trifluoromethyl)phenyl]pyrazolo[1,5-d][1,2,4]triazin-7-amine]
6.52 to 7.00	COc1ccc(-c2nnc(N[C@H]3C[C@@](C)(O)C3)n3cncc23)c(C(F)(F)C(F)(F)F)c1 [Compound 315, (1s,3s)-3-({1-[4-methoxy-2-(pentafluoroethyl)phenyl]imidazo[1,5-d][1,2,4]triazin-4-yl}amino)-1-methylcyclobutan-1-ol]

Reference: patent publication US20250179078A1, “INHIBITORS OF NLRP3” (PTC THERAPEUTICS, INC., priority 2022, published 2025)
